Data on 28 molecules can be found in ChEMBL document CHEMBL1138627, “1-Methyl and 1-(2-hydroxyalkyl)-5-(3-alkyl/cycloalkyl/phenyl/naphthylureido)-1H-pyrazole-4-carboxylic acid ethyl esters as potent human neutrophil chemotaxis inhibitors” (Bioorg Med Chem, 2009).

By pIC50 is commonly meant the IC50 on a negative log10 scale, so that one unit is a factor of ten. The term inhibition in vivo denotes the share of the control response that was lost under treatment. The term inhibition denotes the relative decrease from the control value, in per cent.

pIC50: −log10 of the molar value.

Data set [1] concerns Neutrophil. In words: Reduction of chemotaxis in human neutrophils assessed as inhibition of IL8-induced cell migration pretreated 10 mins before IL8 challenge. The data set is classed as functional, cell-based.
Data set [2] deals with Mus musculus. Put plainly: Antiinflammatory activity against zymosan-induced peritonitis in Swiss mouse assessed as inhibition of granulocyte infiltration into peritoneal cavity at 100 mg/kg, po administered 1 hr before zymosan challenge measured after 4 hrs. Type of data set: functional.
Data set [3] concerns Neutrophil. Put plainly: Reduction of chemotaxis in human neutrophils assessed as inhibition of fMLP-OMe-induced cell migration pretreated 10 mins before fMLP-OMe challenge. The data set is classed as functional, cell-based.
Data set [4] can be described thus: Cytotoxicity against human neutrophils assessed as LDH release. More on the design: concentration or dose not given beside the values. The data set is classed as cell-based. Particulars: neutrophil. (In general: Release of lactate dehydrogenase indicates damage to the cell membrane.)
For data set [5], the system named is Mus musculus. In words: Antiinflammatory activity against zymosan-induced peritonitis in Swiss mouse assessed as protein concentration at 50 mg/kg, po administered 1 hr before zymosan challenge by spectrophotometry. Type of data set: functional.
The subject of data set [6] is Mus musculus. In words: Antiinflammatory activity against zymosan-induced peritonitis in Swiss mouse assessed as inhibition of granulocyte infiltration into peritoneal cavity at 50 mg/kg, po administered 1 hr before zymosan challenge measured after 4 hrs. Type of data set: functional. On the set-up: scale not given: the % may be the effect or the level left.
Data set [7] relates to Neutrophil. In words: Inhibition of chemotaxis in human neutrophils assessed as reduction of fMLP-OMe-induced cell migration at 10 uM relative to control. The data set is classed as functional.
Data set [8] relates to Mus musculus. In words: Antiinflammatory activity against zymosan-induced peritonitis in Swiss mouse assessed as monocyte and lymphocyte content in peritoneal cavity at 50 mg/kg, po administered 1 hr before zymosan challenge measured after 4 hrs. The data set is classed as functional.
For data set [9], the system named is Mus musculus. In words: Antiinflammatory activity against zymosan-induced peritonitis in Swiss mouse assessed as peritoneal protein concentration at 3 mg/kg, po administered 1 hr before zymosan challenge by spectrophotometry. Type of data set: functional.
Data set [10] has as its system Mus musculus. Put plainly: Antiinflammatory activity against zymosan-induced peritonitis in Swiss mouse assessed as granulocyte content in peritoneal cavity lavage at 3 mg/kg, po administered 1 hr before zymosan challenge measured after 4 hrs. The data set is classed as functional.
The test system of data set [11] is Mus musculus. Put plainly: Antiinflammatory activity against zymosan-induced peritonitis in Swiss mouse assessed as monocyte and lymphocyte content in peritoneal cavity lavage at 3 mg/kg, po administered 1 hr before zymosan challenge measured after 4 hrs. Type of data set: functional.
Data set [12] deals with Mus musculus. In words: Antiinflammatory activity against zymosan-induced peritonitis in Swiss mouse assessed as inhibition of granulocyte infiltration into peritoneal cavity at 3 mg/kg, po administered 1 hr before zymosan challenge measured after 4 hrs. Type of data set: functional. On the set-up: scale not given: the % may be the effect or the level left.

For `CCOC(=O)c1cnn(CC(O)c2ccccc2)c1NC(=O)NCc1ccccc1` (stereo not drawn), the pIC50 with Neutrophil [1] is 8.00.
On the same count and under the same terms, the figure for `CCOC(=O)c1cnn(CC(O)c2ccccc2)c1NC(=O)N1CCN(Cc2ccccc2)CC1` (stereo not drawn) is 7.85.
Turning to `CCOC(=O)c1cnn(CC(O)c2ccccc2)c1NC(=O)Nc1ccccc1` (stereo not drawn), in the data set with Neutrophil [1], the pIC50 was 7.35.
On to `CCOC(=O)c1cnn(CC(O)c2ccccc2)c1NC(=O)Nc1cccc(F)c1` (stereo not drawn), for which the inhibition in vivo at 100 mg/kg with Mus musculus [2] was found to be 33%.
With `CCOC(=O)c1cnn(CC(O)c2ccccc2)c1NC(=O)NC(C)C` (stereo not drawn), in the data set with Neutrophil [1], the negative-log IC50 (pIC50) was 7.26.
Regarding `CCOC(=O)c1cnn(CC(O)CC)c1NC(=O)Nc1ccc(F)cc1` (stereo not drawn), the pIC50 in the data set on Neutrophil [3] (read-out: IC50) is 8.49; in the data set with Neutrophil [1], 8.72. Also, in [4], the Activity is under 3%.
Turning to `CCOC(=O)c1cnn(CC(O)c2ccccc2)c1NC(=O)Nc1cccc2ccccc12` (stereo not drawn), the negative logarithm of the IC50 (pIC50) in the data set with Neutrophil [3] (read-out: IC50) is 8.11. The Activity in data set [4] was under 3%.
On to `CCOC(=O)c1cnn(C)c1NC(=O)NCc1ccccc1`, for which the negative-log IC50 (pIC50) in the data set with Neutrophil [3] (read-out: IC50) is 7.74; in the data set with Neutrophil [1], 8.89. Besides, in data set [4], the Activity was under 3%.
Taken in the same sequence, the figures for `CCOC(=O)c1cnn(CC(O)CC)c1NC(=O)N1CCN(Cc2ccccc2)CC1` (stereo not drawn) were 5.70, 13.10 and under 3%.
Taken in the same sequence, the figures for `CCOC(=O)c1cnn(CC(O)CC)c1NC(=O)Nc1cccc(F)c1` (stereo not drawn) were 9.72, 9.44 and under 3%.
The corresponding values for `CCOC(=O)c1cnn(CC(O)CC)c1NC(=O)Nc1cccc2ccccc12` (stereo not drawn) are 7.92, 8.02 and under 3%.
With `CCOC(=O)c1cnn(CC(C)O)c1NC(=O)Nc1ccccc1F` (stereo not drawn), the pIC50 in the data set on Neutrophil [3] (read-out: IC50) was 7.00; in the data set on Neutrophil [1], 12.26. Further, the protein concentration with Mus musculus [5] came out at 2.62 µg/mL. Moreover, the results for the Activity (in data set [4]; in the data set with Mus musculus [6]) were under 3% and 34%, respectively.
Turning to `CCCC(O)Cn1ncc(C(=O)OCC)c1NC(=O)N1CCN(Cc2ccccc2)CC1` (stereo not drawn), the negative logarithm of the IC50 (pIC50) with Neutrophil [3] (read-out: IC50) is 8.96; in the data set with Neutrophil [1] it was 10.05. The Activity in data set [4] was under 3%.
Taken in the same sequence, the figures for `CCOC(=O)c1cnn(CC(C)O)c1NC(=O)NC(C)C` (stereo not drawn) were 7.05, 12.09 and under 3%.
The corresponding values for `CCOC(=O)c1cnn(CC(C)O)c1NC(=O)NCc1ccccc1` (stereo not drawn) are 7.82, 12.27 and under 3%.
`CCOC(=O)c1cnn(CC(C)O)c1NC(=O)N1CCN(Cc2ccccc2)CC1` (stereo not drawn): the pIC50 is under 8.00 in the data set with Neutrophil [3] (read-out: IC50) and 12.00 with Neutrophil [1]. In addition, the inhibition at 10 µM in the data set on Neutrophil [7] came to 63%. The Activity in [4] is under 3%.
The corresponding values for `CCOC(=O)c1cnn(CC(C)O)c1NC(=O)Nc1ccc(F)cc1` (stereo not drawn) are under 8.00, 9.70, 55% and under 3%.
`CCOC(=O)c1cnn(CC(C)O)c1NC(=O)Nc1cccc2ccccc12` (stereo not drawn): the pIC50 with Neutrophil [3] (read-out: IC50) is 8.01; with Neutrophil [1] it was 12.01. Further, the Activity in [4] was under 3%.
Regarding `CCOC(=O)c1cnn(CC(O)CC)c1NC(=O)NC(C)C` (stereo not drawn), the negative logarithm of the IC50 (pIC50) with Neutrophil [3] (read-out: IC50) is under 8.00. In the data set on Neutrophil [7], the inhibition at 10 µM is 52%. In [4], the Activity is recorded as under 3%.
Taken in the same sequence, the figures for `CCOC(=O)c1cnn(CC(O)CC)c1NC(=O)NCc1ccccc1` (stereo not drawn) were under 8.00, 54% and under 3%.
Regarding `CCOC(=O)c1cnn(CC(O)CC)c1NC(=O)Nc1ccccc1F` (stereo not drawn), the negative logarithm of the IC50 (pIC50) in the data set with Neutrophil [3] (read-out: IC50) was 6.92. The Activity in [4] is under 3%.
In the case of `CCCC(O)Cn1ncc(C(=O)OCC)c1NC(=O)NCc1ccccc1` (stereo not drawn), the pIC50 with Neutrophil [3] (read-out: IC50) is 9.37. Also, in [4], the Activity was under 3%.
As for `CCCC(O)Cn1ncc(C(=O)OCC)c1NC(=O)NC(C)C` (stereo not drawn), the pIC50 in the data set on Neutrophil [3] (read-out: IC50) is 7.70; in the data set with Neutrophil [1], 9.00. The Activity in [4] is reported as under 3%.
Taken in the same sequence, the figures for `CCOC(=O)c1cnn(C)c1NC(=O)NC(C)C` were 7.11, 11.74 and under 3%.
As to `CCOC(=O)c1cnn(CC(C)O)c1NC(=O)Nc1cccc(F)c1` (stereo not drawn), the pIC50 in the data set on Neutrophil [3] (read-out: IC50) was under 8.00; in the data set with Neutrophil [1] it was 12.15. The inhibition at 10 µM in the data set on Neutrophil [7] amounted to 60%. Also, the Activity with Mus musculus [5] was 2.68%; in the data set with Mus musculus [8], 23%; in data set [4], under 3%; with Mus musculus [6], 21%.
Regarding `CCOC(=O)c1cnn(C)c1NC(=O)N1CCN(Cc2ccccc2)CC1`, the negative-log IC50 (pIC50) is 6.82 with Neutrophil [3] (read-out: IC50) and 10.26 in the data set on Neutrophil [1]. Besides, the Activity in data set [4] was under 3%.
`C/C=C/C[C@@H](C)[C@@H](O)[C@H]1C(=O)N[C@@H](CC)C(=O)N(C)CC(=O)N(C)[C@@H](CC(C)C)C(=O)N[C@@H](C(C)C)C(=O)N(C)[C@@H](CC(C)C)C(=O)N[C@@H](C)C(=O)N[C@H](C)C(=O)N(C)[C@@H](CC(C)C)C(=O)N(C)[C@@H](CC(C)C)C(=O)N(C)[C@@H](C(C)C)C(=O)N1C` [CYCLOSPORINE]: the pIC50 in the data set on Neutrophil [3] was 10.33.
On to `C[C@@H]1C[C@H]2[C@@H]3CCC4=CC(=O)C=C[C@]4(C)[C@@]3(F)[C@@H](O)C[C@]2(C)[C@@]1(O)C(=O)CO` [DEXAMETHASONE], for which the protein concentration in the data set on Mus musculus [9] turned out to be 1.75 µg/mL. Besides, the Activity with Mus musculus [10] came out at 81%; in the data set with Mus musculus [11], 20%; in the data set with Mus musculus [12], 35%.
